The subject of the assay is brain organoids. Description: 3D shell MEA recording of brain organoid electrical activity with glutamate stimulation. As to conditions: brain organoid in 3D shell MEA. The class given is cell-based, human. From the text:
A 9-week brain organoid was placed at the center of the shell electrodes during self-folding, which allowed the organoid to be enveloped within the leaflets with the PEDOT: PSS electrodes in intimate contact with the organoid (FIG. 10B). A glass cylinder was placed around the device to hold the cell media. Electrode outputs were fabricated for signal acquisition (FIG. 10A). The three PEDOT: PSS electrodes on the leaflets successfully recorded the field potential of the enveloped brain organoid (FIG. 10C, FIG. 11). […] The overlaid spike waveform indicates an average spike duration of ˜2 ms, with varied amplitude during the recording (FIG. 10E). We note that we can add more electrodes to the leaflets to improve the recording (FIGS. 12A-12F, FIGS. 13A-13D).
We further confirm that the signal recorded is from the brain organoids by examining the response to 20 μM glutamate neurotransmitter added to the culture media that served as a positive control for the spontaneous recording (23, 37). […]
After preprocessing the raw signals, we detected spikes separate for each channel using a threshold-based method, where the threshold is automatically set to be 5σn. […] After spike locations were detected, we isolated them by windows of length 3.5 ms. […]

As to `N[C@@H](CCC(=O)O)C(=O)O` [glutamate], the “spike signal-to-noise ratio (SNR), increase of median (amplitude of firing spikes)” value (20 μM glutamate added to the culture media, before vs after application) worked out at 57.6%. The “inter-spike-interval (ISI) of glutamate-induced signals” value (20 μM glutamate, before vs after stimulation) is on record as “longer”.
